These results are taken from paper PMC10165273, “Itch receptor MRGPRX4 interacts with the receptor activity–modifying proteins” (The Journal of Biological Chemistry, 2023).

What all share (type): cell-based
In assay [1] the target is T1, MRGPRX4 + RAMP3 (Homo sapiens, UniProt Q96LA9).
T1 construct: expressed in transfected cells; host or cells: HEK293T
Kind of assay: IP1 accumulation, MRGPRX4 coexpressed with RAMP3. The conditions noted are these: Figure 4c-f; agonist 100µM; X4:ramp3 1:2; MRGPRX4 = 100. The arrangement: key: % IP1; unstimulated mock = 0%, fully stimulated MRGPRX4 = 100%.

The target in assay [2] is T2, MRGPRX4 (Homo sapiens, UniProt Q96LA9).
T2 construct: expressed in transfected cells; host or cells: HEK293T
T2 sequence (Q96LA9 whole entry): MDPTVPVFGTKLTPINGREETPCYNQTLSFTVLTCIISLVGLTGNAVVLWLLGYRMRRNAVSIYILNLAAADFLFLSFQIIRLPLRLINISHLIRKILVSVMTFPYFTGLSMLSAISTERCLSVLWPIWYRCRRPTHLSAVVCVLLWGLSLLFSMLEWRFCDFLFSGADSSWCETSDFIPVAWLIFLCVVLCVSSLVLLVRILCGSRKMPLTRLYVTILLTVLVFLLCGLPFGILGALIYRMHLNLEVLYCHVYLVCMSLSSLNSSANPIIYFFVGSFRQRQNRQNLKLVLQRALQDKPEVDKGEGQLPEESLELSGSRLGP
The experiment in a line: BRET2 β-arrestin2 recruitment to MRGPRX4. The note with it: 100 μM agonist (Fig. 5B, C). From the text:
(§1) The method for homogenous transfection of β-Arrestin and BRET^2 assay of β-Arrestin recruitment has been described previously ([51]). […] BRET^2 measurements were taken on the BioTek Synergy NEO2 microplate reader.
(§2) For MRGPRX4 DNA titration assays, HEK293T cells were cotransfected with either β-Arrestin1 or β-Arrestin2 with increasing amounts of MRGPRX4 (0.5, 1, or 2 pg/cell).
To measure the time-course of β-Arrestin2 recruitment to MRGPRX4 and CALCRL, the transfection and general procedure described above was followed, with the modification that Prolume Purple was added first, followed by addition of the appropriate agonists ([51]).
(§3) The BRET ratio for each sample was determined by calculating the ratio of the light intensity emitted by the GFP10 (515 nm) (acceptor) over the light intensity emitted by the RLuc3 (395 nm) (donor). Net BRET^2 was determined by subtracting the basal BRET^2 (β-arrestin-RLuc3 only) signal from the BRET^2 signals. All BRET values were normalized to the MRGPRX4-only condition.
(In general: Bioluminescence resonance energy transfer reports proximity on the nanometre scale.)

The target in assay [3] is T2, MRGPRX4. The experiment in a line: BRET2 β-arrestin1 recruitment to MRGPRX4. The conditions noted are these: 100 μM agonist (Fig. 5A). Here is the method: as §1, §2, §3

Several values for one entry are separate records, joined by “and”; a condition that tells them apart may be missing. Equal entries are not always repeated.

T1 sequence (Q96LA9 whole entry): as above

With `C[C@H](CCC(=O)O)[C@H]1CC[C@H]2[C@@H]3CC[C@@H]4C[C@H](O)CC[C@]4(C)[C@H]3C[C@H](O)[C@]12C` [DCA, deoxycholic acid], the “response to agonist, X4:ramp3.I:2” value in assay [1] is 55.7055 and 63.4334. In addition, the “β-arrestin2 recruitment to MRGPRX4” value in assay [2] is reported as “did not observe any β-arrestin2 recruitment”. Besides, the “β-arrestin1 recruitment to MRGPRX4” value in assay [3] was “did not recruit β-arrestin1”.
Consider `C[C@H](CCC(=O)NCCS(=O)(=O)O)[C@H]1CC[C@H]2[C@@H]3CC[C@@H]4C[C@H](O)CC[C@]4(C)[C@H]3C[C@H](O)[C@]12C` [TDCA, Taurodeoxycholic acid], for which, in assay [1], the “response to agonist, X4:ramp3.I:2” value is 51.7108 and 61.6065.
